Test results: US20080194585A1, “Fungicidal Pyrazine Derivatives” (priority 2005, published 2008)
Marks after values point to notes of the source that are not given here.

Key:
[1] = tested on: Septoria nodorum; assay: Test H: wheat glum blotch, preventive spray on wheat seedlings
Protocol: (the causal agent of wheat glum blotch) and incubated in a saturated atmosphere at 20° C. for 48 h, and then moved to a growth chamber at 22° C. for 5 days, after which disease ratings were made.

[2] = tested on: Rhizoctonia oryzae; assay: Test G: turf brown patch, preventive spray on creeping bent grass seedlings
Protocol: (the causal agent of turf brown patch) and incubated in a saturated atmosphere at 27° C. for 24 h, and then moved to a growth chamber at 27° C. for 5 days, after which disease ratings were made.

[3] = tested on: Pythium aphanidermatum; assay: Test A: bluegrass pythium blight, preventive spray on bluegrass seedlings
[4] = tested on: Puccinia recondita f. sp. tritici; assay: Test K: wheat leaf rust, preventive spray on wheat seedlings
[5] = tested on: Erysiphe graminis f. sp. tritici; assay: Test L: wheat powdery mildew, preventive spray on wheat seedlings
[6] = tested on: fusarium graminearium; assay: Test I: wheat head scab, preventive spray on wheat seedlings
Protocol: (the causal agent of wheat head scab) and incubated in a saturated atmosphere at 20° C. for 72 h, and then moved to a growth chamber at 22° C. for 5 days, after which disease ratings were made.

[7] = tested on: Plasmopara viticola; assay: Test D: grape downy mildew, spray after inoculation of grape seedlings; type: in vivo
Excerpt: Upon removal, disease ratings were made. […] A dash (-) indicates no test results.

[8] = tested on: Botrytis cinerea; assay: Test E: tomato botrytis, preventive spray on tomato seedlings
[9] = tested on: Septoria tritici; assay: Test J: wheat leaf blotch, preventive spray on wheat seedlings; type: in vivo
Excerpt: A dash (-) indicates no test results.

[10] = tested on: Colletotrichum orbiculare; assay: Test B: cucumber Colletotrichum anthracnose, preventive spray on cucumber seedlings
[11] = tested on: Phytophthora infestans; assay: whole plant or invertebrate; type: in vivo
[12] = 200 ppm, 100 = 100% disease control, 0 = no control relative to controls
[13] = 40 ppm (marked *), 100 = 100% disease control, 0 = no control
[14] = 200 ppm, 100 = 100% disease control, 0 = no control

Cc1nc(C#N)c(=N)n(CC(C)C)c1-c1ccc(F)cc1F [compound 425]
Test H disease control rating [1, 12]: 0% | Test G disease control rating [2, 12]: 0% | Test A disease control rating [3, 12]: 0% | Test K disease control rating [4, 12]: 0% | Test L disease control rating [5, 12]: 0% | Test I disease control rating [6, 12]: 0% | Test D disease control rating [7, 12]: 0% | Test E disease control rating [8, 12]: 0% | Test J disease control rating [9, 12]: 3% | Test B disease control rating [10, 12]: 0% | Test F disease control rating [11, 12]: 16%

CC(C)n1c(-c2c(F)cccc2F)c(Cl)nc(-n2cccn2)c1=O [compound 26]
Test H disease control rating ([1]; 200 ppm): 100% | Test G disease control rating ([2]; 200 ppm): 92% | Test A disease control rating ([3]; 200 ppm): 0% | Test K disease control rating ([4]; 200 ppm): 100% | Test L disease control rating ([5]; 200 ppm): 100% | Test I disease control rating ([6]; 200 ppm): 0% | Test D disease control rating ([7]; 200 ppm): 16% | Test E disease control rating ([8]; 200 ppm): 100% | Test J disease control rating ([9]; 200 ppm): 96% | Test B disease control rating ([10]; 200 ppm): 99% | Test F disease control rating ([11]; 200 ppm): 0%

O=c1c(-n2cccn2)nc(Cl)c(-c2c(F)cccc2F)n1CC1CCCCC1 [compound 31]
Test H disease control rating ([1]; 200 ppm): 73% | Test G disease control rating ([2]; 200 ppm): 0% | Test A disease control rating ([3]; 200 ppm): 0% | Test K disease control rating ([4]; 200 ppm): 88% | Test L disease control rating ([5]; 200 ppm): 69% | Test I disease control rating ([6]; 200 ppm): 0% | Test D disease control rating ([7]; 200 ppm): 0% | Test E disease control rating ([8]; 200 ppm): 97% | Test J disease control rating ([9]; 200 ppm): 100% | Test B disease control rating ([10]; 200 ppm): 0% | Test F disease control rating ([11]; 200 ppm): 0%

O=c1c(-n2cccn2)nc(Cl)c(-c2c(F)cc(F)cc2F)n1-c1cccc(C(F)(F)F)c1 [compound 353]
Test H disease control rating [1, 13]: 98* % | Test G disease control rating [2, 13]: 0* % | Test A disease control rating [3, 14]: 0% | Test K disease control rating [4, 13]: 91* % | Test L disease control rating [5, 13]: 79* % | Test I disease control rating [6, 14]: 0% | Test D disease control rating [7, 14]: 0% | Test E disease control rating [8, 13]: 98* % | Test J disease control rating [9, 13]: 100* % | Test B disease control rating [10, 13]: 16* % | Test F disease control rating [11, 14]: 0%

Cc1cc(C)cc(-c2c(Cl)nc(-n3cncn3)c(=O)n2CC(C)C)c1 [compound 136]
Test H disease control rating ([1]; 40 ppm (*)): 0* % | Test G disease control rating ([2]; 40 ppm (*)): 0* % | Test A disease control rating ([3]; 200 ppm): 0% | Test K disease control rating ([4]; 40 ppm (*)): 0* % | Test L disease control rating ([5]; 40 ppm (*)): 0* % | Test I disease control rating ([6]; 200 ppm): 0% | Test D disease control rating ([7]; 200 ppm): 40% | Test E disease control rating ([8]; 40 ppm (*)): 0* % | Test J disease control rating ([9]; 40 ppm (*)): 28* % | Test B disease control rating ([10]; 40 ppm (*)): 0* % | Test F disease control rating ([11]; 200 ppm): 58%

CCC(C)Cn1c(-c2c(F)cc(F)cc2F)c(Cl)nc(C(=O)NOC)c1=O (stereo not shown) [compound 417]
Test H disease control rating [1, 13]: 60* % | Test G disease control rating [2, 13]: 0* % | Test A disease control rating [3, 12]: 0% | Test K disease control rating [4, 13]: 100* % | Test L disease control rating [5, 12]: 76% | Test I disease control rating [6, 12]: 0% | Test D disease control rating [7, 12]: 86% | Test E disease control rating [8, 13]: 99* % | Test J disease control rating [9, 12]: 0% | Test B disease control rating [10, 13]: 71* % | Test F disease control rating [11, 12]: 93%

Cc1cccc(-n2c(-c3c(F)cccc3F)c(Cl)nc(-n3ccc(C)n3)c2=O)c1 [compound 327]
Test H disease control rating [1, 13]: 98* % | Test G disease control rating [2, 13]: 0* % | Test A disease control rating [3, 13]: 93* % | Test K disease control rating [4, 13]: 95* % | Test L disease control rating [5, 13]: 78* % | Test I disease control rating [6, 13]: 0* % | Test D disease control rating [7, 13]: 0* % | Test E disease control rating [8, 13]: 99* % | Test J disease control rating [9, 13]: 97* % | Test B disease control rating [10, 13]: 37* % | Test F disease control rating [11, 13]: 0* %

CCCCCc1c(Cl)nc(-n2cccn2)c(=O)n1CC(C)C [compound 317]
Test H disease control rating [1, 14]: 0% | Test G disease control rating [2, 14]: 0% | Test A disease control rating [3, 14]: 0% | Test K disease control rating [4, 14]: 41% | Test L disease control rating [5, 14]: 0% | Test I disease control rating [6, 14]: 0% | Test D disease control rating [7, 14]: 0% | Test E disease control rating [8, 14]: 0% | Test J disease control rating [9, 14]: 28% | Test B disease control rating [10, 14]: 0% | Test F disease control rating [11, 14]: 0%

CC(C)Cn1c(-c2ccoc2)c(Cl)nc(-n2cncn2)c1=O [compound 158]
Test H disease control rating ([1]; 40 ppm (*)): 0* % | Test G disease control rating ([2]; 40 ppm (*)): 0* % | Test A disease control rating ([3]; 200 ppm): 0% | Test K disease control rating ([4]; 40 ppm (*)): 0* % | Test L disease control rating ([5]; 40 ppm (*)): 0* % | Test I disease control rating ([6]; 200 ppm): 0% | Test D disease control rating ([7]; 200 ppm): 0% | Test E disease control rating ([8]; 40 ppm (*)): 0* % | Test J disease control rating ([9]; 40 ppm (*)): 15* % | Test B disease control rating ([10]; 40 ppm (*)): 0* % | Test F disease control rating ([11]; 200 ppm): 0%

CC(C)c1c(Cl)nc(-n2cccn2)c(=O)n1Cc1ccccc1 [compound 304]
Test H disease control rating [1, 14]: 0% | Test G disease control rating [2, 14]: 31% | Test A disease control rating [3, 14]: 0% | Test K disease control rating [4, 14]: 100% | Test L disease control rating [5, 14]: 46% | Test I disease control rating [6, 14]: 0% | Test D disease control rating [7, 14]: 0% | Test E disease control rating [8, 14]: 99% | Test J disease control rating [9, 14]: 100% | Test B disease control rating [10, 14]: 0% | Test F disease control rating [11, 14]: 49%

Cc1nc(-c2ccccn2)c(=O)n(-c2ccccc2)c1-c1c(F)cccc1F [compound 359]
Test H disease control rating [1, 13]: 0* % | Test G disease control rating [2, 13]: 0* % | Test A disease control rating [3, 13]: 81* % | Test K disease control rating [4, 13]: 0* % | Test L disease control rating [5, 13]: 0* % | Test I disease control rating [6, 13]: 65* % | Test D disease control rating [7, 13]: 8* % | Test E disease control rating [8, 13]: 0* % | Test J disease control rating [9, 13]: 85* % | Test B disease control rating [10, 13]: 0* % | Test F disease control rating [11, 13]: 0* %

CC(C)Cn1c(-c2c(F)cccc2F)c(Cl)nc(-c2cccnc2)c1=O [compound 178]
Test H disease control rating ([1]; 40 ppm (*)): 0* % | Test G disease control rating ([2]; 40 ppm (*)): 0* % | Test A disease control rating ([3]; 40 ppm (*)): 0* % | Test K disease control rating ([4]; 40 ppm (*)): 0* % | Test L disease control rating ([5]; 40 ppm (*)): 0* % | Test I disease control rating ([6]; 40 ppm (*)): 0* % | Test D disease control rating ([7]; 40 ppm (*)): 0* % | Test E disease control rating ([8]; 40 ppm (*)): 0* % | Test J disease control rating ([9]; 40 ppm (*)): 5* % | Test B disease control rating ([10]; 40 ppm (*)): 0* % | Test F disease control rating ([11]; 40 ppm (*)): 0* %

Cc1nc(C(N)=O)c(=N)n(CC(C)C)c1-c1ccc(F)cc1F [compound 427]
Test H disease control rating [1, 12]: 0% | Test G disease control rating [2, 12]: 0% | Test A disease control rating [3, 12]: 0% | Test K disease control rating [4, 12]: 0% | Test L disease control rating [5, 12]: 0% | Test I disease control rating [6, 12]: 0% | Test D disease control rating [7, 12]: 0% | Test E disease control rating [8, 12]: 0% | Test J disease control rating [9, 12]: 0% | Test B disease control rating [10, 12]: 0% | Test F disease control rating [11, 12]: 0%

O=c1c(-n2cccn2)nc(Cl)c(-c2c(F)cccc2F)n1-c1cc(F)cc(F)c1 [compound 384]
Test H disease control rating [1, 13]: 99* % | Test G disease control rating [2, 13]: 47* % | Test A disease control rating [3, 13]: 0* % | Test K disease control rating [4, 13]: 100* % | Test L disease control rating [5, 13]: 59* % | Test I disease control rating [6, 13]: 0* % | Test D disease control rating [7, 13]: 15* % | Test E disease control rating [8, 13]: 99* % | Test J disease control rating [9, 13]: 98* % | Test B disease control rating [10, 13]: 90* % | Test F disease control rating [11, 13]: 0* %
